Like-named read-outs stand apart in the source and are kept apart here.
Legend:
[1] = test system: HeLa (human cervical cancer cell line); assay: CCK-8 anti-proliferative assay, HeLa; assay type: cell-based; settings: for IC50: Homo sapiens, HeLa, CCK-8, 48 h, read-out: Cytotoxicity (IC50) HeLa; for Selectivity index (SI) HeLa: IC50 LO2 / IC50 HeLa
Procedure: (§1) HeLa (human cervical cancer cell line), HepG2 (human liver cancer cell line), SP2/0 (mouse myeloma cell line), and LO2 (human normal liver cell line) were cultured in DMEM medium. Each medium was supplemented with 10% fetal bovine serum, 1% L-glutamine and 1% penicillin/streptomycin solution. The cell lines were kept in the incubator at 37 ℃ in a humidified atmosphere (90% RH) containing 5% CO2. […] The cell lines SP2/0 and MCF-7 were obtained from Laboratory Center of Shaanxi Province People’s Hospital.
(§2) 2×10^3 cells per well were planted into 96-well plates in 100 μL growth medium and incubated for 24 h. […] The mixture was incubated at 37 ℃ under a humidified 5% CO2 atmosphere. After incubation, 10 μL CCK-8 solution was added to each well and the cells were further incubated for 2 h at 37 ℃ according to the CCK-8 Technical Manual. Then, the OD value for each well was read at wavelength 450 nm to determine the cell viability on a microplate reader (Synergy HT, USA). […] The independent experiment was repeated at least three times. The percentage of growth inhibition was calculated as follows according to reference ([18]),
(§3) % of growth inhibition = [1 - absorbance of treated cells/absorbance of untreated cells] × 100%

[2] = test system: HepG2 (human liver cancer cell line); assay: CCK-8 anti-proliferative assay, HepG2; assay type: cell-based; settings: for IC50: Homo sapiens, HepG2, CCK-8, 48 h, read-out: Cytotoxicity (IC50) HepG2; for Selectivity index (SI) HepG2: IC50 LO2 / IC50 HepG2
Procedure: as §1, §2, §3

[3] = test system: SP2/0 (mouse myeloma cell line); assay: CCK-8 anti-proliferative assay, SP2/0; assay type: cell-based; settings: for IC50: Mus musculus, CCK-8, 48 h, read-out: Cytotoxicity (IC50) SP2/0; for Selectivity index (SI) SP2/0: IC50 LO2 / IC50 SP2/0
Procedure: as §1, §2, §3

[4] = test system: MCF-7 (human breast cancer cell line); assay: CCK-8 anti-proliferative assay, MCF-7; assay type: cell-based; settings: for IC50: Homo sapiens, MCF7, CCK-8, 48 h; for Selectivity index (SI) MCF-7: IC50 LO2 / IC50 MCF-7
Procedure: as §1, §2, §3

[5] = CCK-8 cytotoxicity assay, normal LO2 cells; assay type: cell-based, human; settings: human, LO2 normal liver cells; CCK-8, 48 h, normal liver cells; read-out: Cytotoxicity (IC50) L02
Procedure: as §1, §2, §3

[6] = test system: HeLa, HepG2, SP2/0 and MCF-7; assay: CCK-8 anti-proliferative assay, all examined cancer cell lines; assay type: cell-based; settings: HepG2, SP2/0, MCF-7, CCK-8, 48 h
Procedure: as §1, with “MCF-7 (breast cancer cell line) was cultured in RPMI-1640 medium. HeLa” for “HeLa”
2×10^3 cells per well were planted into 96-well plates in 100 μL growth medium and incubated for 24 h. Then, the cells were exposed to each compound in growth medium (DMSO< 0.5%) at five different concentrations (1.23, 3.70, 11.11, 33.33, and 100 μmol/L) for 48 h. The mixture was incubated at 37 ℃ under a humidified 5% CO2 atmosphere. After incubation, 10 μL CCK-8 solution was added to each well and the cells were further incubated for 2 h at 37 ℃ according to the CCK-8 Technical Manual. Then, the OD value for each well was read at wavelength 450 nm to determine the cell viability on a microplate reader (Synergy HT, USA). […] The independent experiment was repeated at least three times. The percentage of growth inhibition was calculated as follows according to reference ([18]),
as §3

[7] = read-out: Cytotoxicity (IC50) MCF-7

FC(F)(F)Oc1ccc2nc(Cl)sc2c1 [Compound 3, 2-chloro-6-trifluoromethoxy-benzothiazole]
IC50 [1]: > 100 µM | IC50 [2]: > 100 µM | IC50 [3]: > 100 µM | IC50 [4, 7]: > 100 µM | IC50 at 48 h [5]: 100 ± 6.07 µM | IC50 [6]: > 100 µM | melting point: 38 to 39 °C

CCCNc1nc2ccc(OC(F)(F)F)cc2s1 [Compound 4b]
IC50 [1]: 30.1 ± 1.28 µM | Selectivity index (SI) HeLa [1]: 1.07 | IC50 [2]: 18 ± 0.88 µM | Selectivity index (SI) HepG2 [2]: 1.79 | Selectivity index (SI) SP2/0 [3]: 0.69 | IC50 [3]: 46.4 ± 3.62 µM | IC50 [4, 7]: 12.9 ± 0.69 µM | Selectivity index (SI) MCF-7 [4]: 2.50 | IC50 at 48 h [5]: 32.2 ± 3.03 µM | melting point: 88 to 89 °C

CCCCNc1nc2ccc(OC(F)(F)F)cc2s1 [Compound 4c]
IC50 [1]: 16.7 ± 0.94 µM | Selectivity index (SI) HeLa [1]: 1.53 | IC50 [2]: > 100 µM | Selectivity index (SI) SP2/0 [3]: 0.43 | IC50 [3]: 59 ± 3.32 µM | IC50 [4, 7]: 21.9 ± 0.97 µM | Selectivity index (SI) MCF-7 [4]: 1.17 | IC50 at 48 h [5]: 25.6 ± 3.12 µM | melting point: 76 to 78 °C

CCN(CC)c1nc2ccc(OC(F)(F)F)cc2s1 [Compound 4d, (N-diaethylamine)-6-trifluoromethoxy-benzothiazole]
IC50 [1]: > 100 µM | IC50 [2]: > 100 µM | IC50 [3]: 48.5 ± 3.41 µM | IC50 [4, 7]: 46.6 ± 2.77 µM | IC50 at 48 h [5]: > 100 µM | melting point: 38 to 39 °C

FC(F)(F)Oc1ccc2nc(NC3CCCCC3)sc2c1 [Compound 4e]
IC50 [1]: 20.9 ± 0.98 µM | Selectivity index (SI) HeLa [1]: 1.62 | IC50 [2]: 20.2 ± 0.93 µM | Selectivity index (SI) HepG2 [2]: 1.67 | Selectivity index (SI) SP2/0 [3]: 1.91 | IC50 [3]: 17.7 ± 0.81 µM | IC50 [4, 7]: 20.5 ± 1.09 µM | Selectivity index (SI) MCF-7 [4]: 1.65 | IC50 at 48 h [5]: 33.8 ± 2.4 µM | melting point: 96 to 97 °C

FC(F)(F)Oc1ccc2nc(N3CCCC3)sc2c1 [Compound 4f, (N-pyrrolidine)-6-trifluoromethoxy-benzothiazole]
IC50 [1]: > 100 µM | IC50 [2]: > 100 µM | IC50 [3]: > 100 µM | IC50 [4, 7]: > 100 µM | IC50 at 48 h [5]: 65.2 ± 3.53 µM | IC50 [6]: > 100 µM | melting point: 129 to 130 °C

FC(F)(F)Oc1ccc2nc(N3CCCCC3)sc2c1 [Compound 4g, 2-(N-piperidine)-6-trifluoromethoxy-benzothiazole]
IC50 [1]: > 100 µM | IC50 [2]: > 100 µM | Selectivity index (SI) SP2/0 [3]: 4.12 | IC50 [3]: 32.6 ± 1.44 µM | IC50 [4, 7]: 25.8 ± 1.21 µM | Selectivity index (SI) MCF-7 [4]: 5.20 | IC50 at 48 h [5]: > 100 µM | melting point: 74 to 75 °C

FC(F)(F)Oc1ccc2nc(N3CCOCC3)sc2c1 [Compound 4h, (N-morpholine)-6-trifluoromethoxy-benzothiazole]
IC50 [1]: > 100 µM | IC50 [2]: > 100 µM | IC50 [3]: 98.7 ± 3.28 µM | IC50 [4, 7]: > 100 µM | IC50 at 48 h [5]: > 100 µM | IC50 [6]: > 100 µM | melting point: 103 to 105 °C

CC1CCN(c2nc3ccc(OC(F)(F)F)cc3s2)CC1 [Compound 4i, 2-(N-4-methyl-1-piperidinyl)-6-trifluoromethoxy-benzothiazole]
IC50 [1]: > 100 µM | IC50 [2]: > 100 µM | Selectivity index (SI) SP2/0 [3]: 9.68 | IC50 [3]: 11.5 ± 0.85 µM | IC50 [4, 7]: > 100 µM | IC50 ([4]; read-out: IC50 in MCF-7 cells): 11.5 µM | IC50 at 48 h [5]: > 100 µM | melting point: 77 to 78 °C

CNC(=O)c1cc(Oc2ccc(NC(=O)Nc3ccc(Cl)c(C(F)(F)F)c3)cc2)ccn1 [Sorafenib, reference compound]
IC50 [1]: 5.16 ± 0.62 µM | IC50 [2]: 12 ± 2.12 µM | IC50 [3]: 4.25 ± 0.75 µM | IC50 [4, 7]: 7.66 ± 0.73 µM | IC50 at 48 h [5]: 11.9 ± 0.32 µM

Reference: PMC7757987, “Antitumor Activity and Mechanism Study of Riluzole and Its Derivatives” (Iranian Journal of Pharmaceutical Research : IJPR, 2020)
